# Measured values reported in PubChem BioAssay (NCI).
# Values joined by “and” are separate entries in the source; they are usually repeats but may differ in a detail not shown here. Identical values can stand only once.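 All cell lines were grown in 96-well plates and treated with compound for 48 hours. At the GI50, growth is halved. TGI denotes the concentration required for complete inhibition of growth.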
# Legend:
# Test in all cases: inhibition of tumour cell growth, NCI panel, 48 h
# MALME-3M melanoma = test system: MALME-3M melanoma
# SF-295 CNS = test system: SF-295 CNS
# COLO 205 colon = test system: COLO 205 colon
# MDA-MB-231 breast = test system: MDA-MB-231 breast
# MOLT-4 leukemia = test system: MOLT-4 leukemia
# EKVX NSCLC = test system: EKVX NSCLC
# BT-549 breast = test system: BT-549 breast
# SR leukemia = test system: SR leukemia
# K-562 leukemia = test system: K-562 leukemia
# MDA-MB-435 = test system: MDA-MB-435
SMILES,TGI (MALME-3M melanoma),TGI (SF-295 CNS),TGI (COLO 205 colon),TGI (MDA-MB-231 breast),TGI (MOLT-4 leukemia) [µM],TGI (EKVX NSCLC),TGI (BT-549 breast),TGI (SR leukemia),TGI (K-562 leukemia),TGI (MDA-MB-435),GI50 (MALME-3M melanoma) [µM],GI50 (SF-295 CNS) [µM],GI50 (COLO 205 colon) [µM],GI50 (MDA-MB-231 breast) [µM],GI50 (MOLT-4 leukemia) [µM],GI50 (EKVX NSCLC) [µM],GI50 (BT-549 breast) [µM],GI50 (SR leukemia),GI50 (K-562 leukemia),GI50 (MDA-MB-435)
C(=NCCN1CCOCC1)=NC1CCCCC1,> 100 µM,> 100 µM,> 100 µM,> 100 µM,> 100,> 100 µM,> 100 µM,> 100 µM,> 100 µM,> 100 µM,–,–,–,–,–,–,–,–,–,–
CN(C)CCNC(=O)c1cccc2ccc(-c3ccc(O)cc3)nc12,6.08 µM and 2.9 µM,10.8 µM,14.6 µM and 14.4 µM,11.6 µM,0.692,26.3 µM,19.5 µM,15.7 µM,3.96 µM,15.5 µM,0.863,2.82,2.31,–,–,–,–,–,–,–
O=C(O)COc1ccc2c(=O)c3sc4c(=O)c5ccccc5c(=O)c4c3c(=O)c2c1,4.59 µM,20.6 µM,31.4 µM,71.7 µM,52.6,78.8 µM,21.8 µM,> 100 µM,95.1 µM,3.35 µM,2.12,6.72,13.7,17.8,21.5,16.8,6.99,32.8 µM,25.6 µM,1.78 µM
COc1cccc(C2CC(C)(O)Oc3cc4c(cc32)OCO4)c1O (stereo unspecified),> 100 µM,64.9 µM,41.3 µM,67.7 µM,> 94.3,99.4 µM,62.4 µM,> 51.7 µM,> 53.6 µM,9.77 µM,–,–,–,–,–,–,–,–,–,–
Cc1ccc(S(=O)(=O)Nc2ccccc2C=O)cc1,46.1 µM,85.6 µM,33.2 µM,41 µM,34.5,61.1 µM,58.8 µM,86.3 µM,60.8 µM,34.9 µM,–,–,–,–,–,–,–,–,–,–
Cc1ccc(SC2c3ccc(C)cc3Oc3nc(N)c(C#N)c(N)c32)cc1 (stereo unspecified),3.6 µM,19.5 µM,3.32 µM,3.29 µM,6.09,3.09 µM,3.25 µM,5.54 µM,12.4 µM,3.4 µM,1.77,6.77,1.71,1.67,2.27,1.59,1.63,2.16 µM,2.79 µM,1.81 µM
CN1CCN(C2CCN(C(=O)Nc3cc(Oc4ccc(NC(=O)C5(C(=O)Nc6ccc(F)cc6)CC5)c(F)c4)ccn3)CC2)CC1,2.25 µM,> 3.67 µM,> 2.19 µM,> 7 µM,> 2.7,> 8.76 µM,> 2.71 µM,1.77 µM,> 2.53 µM,> 3.27 µM,0.703,0.47,0.977,0.981,0.803,> 1.99,1.02,0.53 µM,0.514 µM,0.918 µM
O=C(Nc1ccc(Br)cc1F)c1cc(F)ccc1O,1.53 µM,3.42 µM,6.56 µM,4 µM,6.4,7.38 µM,1.4 µM,> 100 µM,> 100 µM,4.41 µM,0.335,1.76,2.46,0.41,1.86,1.3,0.356,0.476 µM,0.445 µM,0.539 µM
COc1cccc2c1C(=O)c1c(O)c3c(c(O)c1C2=O)C[C@@](O)(C(=O)CO)C[C@@H]3OC1CC(N)CC(C)O1 (stereo partly specified),0.256 µM and 0.11 µM,0.208 µM and 0.13 µM,0.389 µM and 0.351 µM,0.675 µM and 0.78 µM,–,0.839 µM and 0.61 µM,0.46 µM and 0.215 µM,0.492 µM and 0.632 µM,0.783 µM and 0.406 µM,0.283 µM and 0.156 µM,0.0491,0.018,0.0823,0.232,–,0.152,0.106,0.00548 µM and 0.02 µM,0.0243 µM and 0.0414 µM,0.131 µM and 0.0327 µM
COc1cccc(F)c1C(=O)c1cnc(NC2CCN(S(C)(=O)=O)CC2)nc1N,13.7 µM,> 25 µM,5.69 µM,> 22.1 µM,> 14.7,–,16.8 µM,> 11.8 µM,> 25 µM,> 25 µM,4.35,3,1.49,2.74,2.14,–,5.45,0.644 µM,6.55 µM,2.48 µM
N#Cc1c(NC(=O)NCc2ccccc2)sc2c1CCCCC2,> 100 µM,24 µM,3.74 µM,13.9 µM,> 100,> 100 µM,> 100 µM,> 100 µM,> 100 µM,0.564 µM,0.524,0.425,0.521,0.973,0.456,0.461,0.923,0.346 µM,0.371 µM,0.22 µM
Cn1cc(C2=C(c3ccc(N)cc3)C(=O)NC2=O)c2ccccc21,> 25 µM,> 25 µM,> 25 µM,> 25 µM,> 25,–,> 25 µM,> 25 µM,> 25 µM,24.4 µM,> 25,15.7,11.6,> 23,9.3,–,11.4,9.43 µM,9.71 µM,5.71 µM
COc1ccc(OC)c2c1[nH]c(=O)c1c3ccccc3cn21,3.32 µM,2.7 µM,2.79 µM,2.86 µM,2.3,3.76 µM,5.29 µM,2.36 µM,3.12 µM,3.13 µM,1.78,1.25,1.2,1.4,0.581,1.34,2.27,0.189 µM,0.692 µM,1.62 µM
COC(=O)C[C@](O)(CCCC(C)(C)O)C(=O)O[C@@H]1C(OC)=C[C@]23CCCN2CCc2cc4c(cc2[C@H]13)OCO4,0.268 µM and 0.0635 µM,–,–,–,–,0.688 µM and 0.472 µM,–,0.751 µM,–,–,0.0196,0.0237,0.0283,0.087,–,0.0486,0.0288,–,0.0292 µM,0.0279 µM
CSC1=Nc2c(c(C)c(C)n2COC(CO)CO)C2=NC(=O)C(C)N12 (stereo unspecified),> 100 µM,> 100 µM,> 100 µM,> 100 µM,> 100,> 100 µM,> 100 µM,> 100 µM,> 100 µM,> 100 µM,> 100,> 100,> 100,> 100,> 100,> 100,> 100,2.48 µM,> 100 µM,> 100 µM
O=C(Nc1ccc2ncccc2c1)Nc1ccc2ncccc2c1,> 100 µM,> 100 µM,> 100 µM,> 100 µM,> 100,> 100 µM,> 100 µM,> 100 µM,> 100 µM,> 100 µM,–,–,–,–,–,–,–,–,–,–
C/C=C(\C)C(=O)O[C@H]1C=CC(=O)O[C@H]1CCC(=O)[C@H](C)O,32.1 µM,50.8 µM,22.6 µM,32.4 µM,41.8,33.6 µM,36.8 µM,13.2 µM,22.2 µM,27.3 µM,15.5,23.6,6.07,16.8,17.6,17.8,19,2.22 µM,4.92 µM,11.8 µM
CCOC(=O)c1ccc(NC(=O)Oc2ccc3c(C)cc(=O)oc3c2)cc1,> 100 µM,> 100 µM,> 100 µM,82.8 µM,58,> 100 µM,89.5 µM,54.2 µM,66.7 µM,> 100 µM,–,–,–,–,–,–,–,–,–,–
CC[As](CC)SC[C@H](C)C(=O)N1CCC[C@H]1C(=O)O,0.207 µM,2 µM,0.14 µM,0.301 µM,0.0586,1.72 µM,0.515 µM,0.0102 µM,0.0615 µM,0.114 µM,0.0441,0.743,0.0344,0.0686,0.016,0.162,0.0749,< 0.01 µM,< 0.01 µM,0.0305 µM
C=C1C(=O)OC2CC(C)C(C(CC(C)=O)OC(C)=O)=CCC12 (stereo unspecified),3.97 µM,62 µM,21.2 µM,27.2 µM,20.4,26.6 µM,15.2 µM,15.5 µM,17.9 µM,33 µM,–,–,–,–,–,–,–,–,–,–
CCN(CC)CCC(CNc1ccnc2cc(Cl)ccc12)c1ccc(Cl)cc1 (stereo unspecified),3.16 µM,2.64 µM,2.5 µM,3.21 µM,9.27,18.8 µM,3.4 µM,1.48 µM,1.16 µM,1.65 µM,1.4,1.02,1.13,1.28,1.6,3.85,1.73,0.311 µM,0.312 µM,0.402 µM
CCOC(=O)C1=CN(C)C=C(C(=O)OCC)C1c1cc(Br)c(OCC)c(OC)c1,> 100 µM,> 100 µM,> 100 µM,> 100 µM,> 100,–,> 100 µM,> 100 µM,> 100 µM,> 100 µM,> 100,41.1,68.7,45.4,> 100,–,> 100,> 100 µM,> 100 µM,> 100 µM
COC(=O)COc1ccccc1/C=C1\N=C(c2ccccc2)N(c2cc(C(F)(F)F)ccc2Cl)C1=O,92.5 µM,> 100 µM,> 100 µM,> 100 µM,62.3,> 100 µM,86.2 µM,70.5 µM,> 100 µM,> 100 µM,27.5,> 100,31.7,> 100,23,> 100,28.4,24 µM,33.8 µM,33.1 µM
NC(=O)/C=C/C(=O)c1c(Cl)cccc1Cl,1.71 µM,7.35 µM,0.355 µM,2.47 µM,5.46,–,3.03 µM,1.37 µM,5.83 µM,3.48 µM,0.358,2.54,0.191,1.23,1.18,–,1.59,0.224 µM,0.653 µM,1.3 µM
CC(=O)Nc1ccc(S(=O)(=O)N2C(=O)CCC2C(=O)Nc2ccc(Br)cc2)cc1 (stereo unspecified),9.17 µM,12.1 µM,11.7 µM,6.94 µM,10.3,–,8.38 µM,5.38 µM,10.7 µM,14.3 µM,2.64,2.11,3.01,1.29,2.2,–,1.79,1.41 µM,1.95 µM,2.72 µM
COC(=O)c1ccc2c(c1)nc(NC(=O)c1ccccc1)n2CCCc1ccccc1,> 100 µM,> 100 µM,> 100 µM,> 100 µM,> 100,–,> 100 µM,> 100 µM,> 100 µM,> 100 µM,5.73,3.62,3.89,6.26,2.78,–,3.33,2.54 µM,3.26 µM,3.4 µM
CNCc1ccccc1-c1csc([C@@H](C)Nc2nc(C)nc3cc(OC)c(OC)cc23)c1,3.28 µM,2.88 µM,3.59 µM,3.78 µM,–,12.9 µM,3.55 µM,2.38 µM,1.57 µM,3.2 µM,1.76,1.45,1.77,1.85,–,1.61,1.76,0.624 µM,0.168 µM,1.75 µM
COc1ccc(Sc2[nH]c(C(C)=O)c3ccccc23)cc1,51.3 µM,26.7 µM,0.398 µM,29.5 µM,–,26 µM,17.4 µM,15.2 µM,14.7 µM,13 µM,17.8,11.6,0.174,11.4,–,8.13,3.13,1.35 µM,2.65 µM,2.76 µM
